The record followed here is patent US11246961B2, “Engineered scaffolds for vascularized tissue repair” (The Regents of the University of California, priority 2016, dated 2022).

The target of one assay is T1, integrin αvβ3 (Homo sapiens, UniProt P05106+P06756).
T1 construct: expressed in transfected cells; host or cells: K562 myeloid leukemia cells (αvβ3-K562), provided by Dr. Yoshikazu Takada
Kind of assay: flow cytometry ligand-cell binding, αvβ3-K562 cells. The following applies: K562 cells highly expressing integrin αvβ3. As to the method: (§1) FIG. 10 presents flow cytometry data from an assay of binding affinity of LXW7 and GRGD (SEQ ID NO: 1) to different cell types. Tests included EPCs/ECs from different sources, including HECFCs (A), HCAECs (B), HMVECs (C), and THP-1 monocytes (D), Platelets (E), as well as K562 cells engineered to highly express αvβ3 (αvβ3-K562, F), and αIIbβ3 (αIIbβ3-K562, G). Cells were incubated with the LXW7-bio, GRGD-bio (SEQ ID NO: 1), or D-Biotin peptide and subsequently incubated with streptavidin-phycoerythrin. Flow cytometry analysis was performed to determine the binding affinity of the ligands. Samples treated with D-biotin were used as negative controls.
Human coronary artery endothelial cells (HCAECs) were purchased from ATCC. Human cardiac microvascular endothelial cells (HMVECs) were purchased from Lonza. THP-1 monocytes were obtained from Dr. Pamela Lein (University of California, Davis). […]
LXW7-bio (1 μM) was incubated with 3×10^5 HECFCs, HCAECs, HMVECs, αvβ3-K562 and αIIbβ3-K562 cells and THP-1 monocytes and 1×10^8 platelets in binding buffer (HEPES containing 10% FBS) on ice for 30 minutes. […] Samples were analyzed on a BD Fortessa LSR Cell Analyzer and further data analysis and gating were performed using FlowJo software (Treestar, Inc.).

In a further assay the test system is HMVECs. Kind of assay: flow cytometry ligand-cell binding, HMVECs. On the set-up: species or system human. The following applies: biotinylated ligand 1 μM, streptavidin-phycoerythrin. As to the method: as §1
(§2) LXW7-bio (1 μM) was incubated with 3×10^5 HECFCs, HCAECs, HMVECs, αvβ3-K562 and αIIbβ3-K562 cells and THP-1 monocytes and 1×10^8 platelets in binding buffer (HEPES containing 10% FBS) on ice for 30 minutes. The samples were washed three times with DPBS containing 1% FBS and incubated with 2 μg/ml of streptavidin-phycoerythrin on ice for 30 minutes and then washed with DPBS. Samples were analyzed on a BD Fortessa LSR Cell Analyzer and further data analysis and gating were performed using FlowJo software (Treestar, Inc.).

A further assay relates to HECFCs. Kind of assay: flow cytometry ligand-cell binding, HECFCs. On the set-up: species or system human. Particulars: biotinylated ligand 1 μM, streptavidin-phycoerythrin. As to the method:
as §1, §2

The test system of assay [1] is HCAECs. Description: attachment assay on ligand treated culture surfaces, HCAECs. Type of assay: cell-based, human. Particulars: 10 minutes. The text has this: Ligands LXW7, LXY30, and LLP2A were synthesized as in U.S. Pat. No. 9,073,974. Biotinylated LXW7 (LXW7-bio) and biotinylated GRGD (GRGD-bio) (SEQ ID NO: 1) were synthesized using established solid phase peptide synthesis protocols (Xiao et al. (2010) Mol Cancer Therapeutics 9:2714). Peptide-bio was designed to have biotin attached to the side chain of Lys, with two hydrophilic linkers between peptide and Lys (biotin). To modify culture surface with ligands, target culture wells in a 24-well plate were coated with 500 μL of 20 μg/mL Avidin (Thermo Fisher Scientific), and incubated for 1 hour at 37° C. Avidin coated wells were rinsed three times with DPBS and were treated with 500 μL molar equivalents (2 μM) of D-biotin (Thermo Fisher Scientific), LXW7-bio, or GRGD-bio (SEQ ID NO: 1). After 1 hour, the wells were washed three times with DPBS and blocked with 1% bovine serum albumin (BSA; Thermo Fisher Scientific) for 1 hour. After the wells were rinsed three times with DPBS, for cell attachment assay, 5×10^4 HCAECs and THP-1 monocytes suspended in the respective maintenance medium were added to the wells and incubated for 10 minutes or 16 hours at 37° C., 5% CO2, respectively. After each time point the wells were washed three times with DPBS, and the adhered cells were fixed in 10% formalin (Azer Scientific) for 20 minutes. For platelets attachment assay, the PRP was centrifuged, and the platelet pellet was resuspended in 1% BSA with 2 mM CaCl2 and 1 mM MgCl2 to achieve a final concentration of 1×10^8 platelets/mL, added to the wells at a density of 5×10^7 platelets/cm^2, and incubated for 16 hours at 37° C., 5% CO2. The wells were washed three times with DPBS, and the adhered cells were fixed in 10% formalin for 20 min. The HCAECs wells were washed with DPBS again and blocked for 1 hour with 1% BSA. An additional wash was performed, and the plate was incubated overnight with mouse anti-PECAM-1 antibody (1:100; Abcam) in 1% BSA at 4° C. […] Five images were randomly taken from each sample and quantification of images was performed using the Image J software (NIH).

Assay [2] deals with HCAECs. Kind of assay: flow cytometry ligand-cell binding, HCAECs. On the set-up: species or system human. Particulars: biotinylated ligand 1 μM, streptavidin-phycoerythrin. The method, then: as §1, §2

T1 sequence (P06756 31-889 limits assumed): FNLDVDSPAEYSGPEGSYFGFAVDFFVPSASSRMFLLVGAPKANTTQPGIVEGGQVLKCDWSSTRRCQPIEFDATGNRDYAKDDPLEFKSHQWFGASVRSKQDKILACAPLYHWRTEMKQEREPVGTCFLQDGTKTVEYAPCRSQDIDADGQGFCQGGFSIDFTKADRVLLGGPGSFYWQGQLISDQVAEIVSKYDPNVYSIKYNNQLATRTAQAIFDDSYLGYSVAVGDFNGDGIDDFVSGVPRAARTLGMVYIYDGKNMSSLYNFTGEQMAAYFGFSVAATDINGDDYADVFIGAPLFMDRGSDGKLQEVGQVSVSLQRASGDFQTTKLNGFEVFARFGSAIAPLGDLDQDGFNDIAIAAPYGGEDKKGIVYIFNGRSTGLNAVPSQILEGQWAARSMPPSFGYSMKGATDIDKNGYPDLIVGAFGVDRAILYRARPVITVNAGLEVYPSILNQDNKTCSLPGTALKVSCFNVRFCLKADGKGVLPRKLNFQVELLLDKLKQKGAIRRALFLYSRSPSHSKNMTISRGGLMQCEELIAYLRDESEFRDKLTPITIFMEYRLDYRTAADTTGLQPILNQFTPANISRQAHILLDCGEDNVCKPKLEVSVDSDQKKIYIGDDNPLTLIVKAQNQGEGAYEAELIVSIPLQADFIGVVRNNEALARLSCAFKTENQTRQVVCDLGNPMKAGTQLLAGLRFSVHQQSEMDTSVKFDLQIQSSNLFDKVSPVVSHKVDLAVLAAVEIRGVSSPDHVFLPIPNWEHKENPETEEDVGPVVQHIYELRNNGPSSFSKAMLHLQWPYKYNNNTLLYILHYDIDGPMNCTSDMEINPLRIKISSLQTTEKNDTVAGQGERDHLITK
T1 sequence (P06756 891-1048 partner limits assumed): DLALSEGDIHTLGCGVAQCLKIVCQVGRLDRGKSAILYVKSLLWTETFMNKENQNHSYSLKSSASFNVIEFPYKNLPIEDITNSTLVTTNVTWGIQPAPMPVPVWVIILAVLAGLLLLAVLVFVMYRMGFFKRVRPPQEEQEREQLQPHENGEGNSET
T1 sequence (P05106 27-788): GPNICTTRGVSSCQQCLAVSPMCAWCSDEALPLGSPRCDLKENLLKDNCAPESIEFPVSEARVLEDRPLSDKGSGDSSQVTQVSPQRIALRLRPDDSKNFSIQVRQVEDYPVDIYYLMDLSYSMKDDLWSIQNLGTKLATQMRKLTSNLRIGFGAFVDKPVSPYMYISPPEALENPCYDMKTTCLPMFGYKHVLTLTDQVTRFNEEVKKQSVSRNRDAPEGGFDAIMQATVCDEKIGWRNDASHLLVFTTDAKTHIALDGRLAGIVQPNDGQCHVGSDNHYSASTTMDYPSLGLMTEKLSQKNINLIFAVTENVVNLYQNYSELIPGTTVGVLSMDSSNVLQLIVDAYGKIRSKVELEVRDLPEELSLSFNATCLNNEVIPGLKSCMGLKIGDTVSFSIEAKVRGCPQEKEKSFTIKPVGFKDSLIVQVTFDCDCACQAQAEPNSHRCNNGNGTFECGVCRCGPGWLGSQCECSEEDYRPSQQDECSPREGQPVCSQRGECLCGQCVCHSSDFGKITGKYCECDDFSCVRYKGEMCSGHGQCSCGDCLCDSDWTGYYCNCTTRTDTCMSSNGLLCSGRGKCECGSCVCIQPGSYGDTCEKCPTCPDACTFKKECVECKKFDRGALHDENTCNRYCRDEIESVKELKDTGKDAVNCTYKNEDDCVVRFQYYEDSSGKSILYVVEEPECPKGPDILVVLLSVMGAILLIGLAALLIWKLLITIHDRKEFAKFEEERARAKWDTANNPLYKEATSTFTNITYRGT

As to cGRGDdvc [LXW7], the “binding affinity to αvβ3-K562 cells by flow cytometry” value with integrin αvβ3 is “higher binding affinity than GRGD”. Besides, in the assay with HMVECs, the “binding affinity to HMVECs by flow cytometry” value is “higher binding affinity with different types of EPCs/ECs than conventional GRGD peptide”. Besides, the “binding affinity to HECFCs by flow cytometry” value in the assay on HECFCs is “higher binding affinity with different types of EPCs/ECs than conventional GRGD peptide”. For the same substance, the “attachment of HCAECs on ligand treated surface” value in the assay with HCAECs [1] (avidin + biotinylated ligand 2 μM) was “bound to both LXW7 and GRGD”. Also, the “number of attached HCAECs, LXW7 vs GRGD surface” value with HCAECs [1] (quantified) was “attracted more HCAECs than the GRGD-modified”. In the assay on HCAECs [2], the “binding affinity to HCAECs by flow cytometry” value is on record as “higher binding affinity with different types of EPCs/ECs than conventional GRGD peptide”.
